{
  "source": "patent US20190352268A1",
  "about": "“CANNABINOID RECEPTOR MEDIATING COMPOUNDS” (The USA, as represented by the Secretary, Department of …, priority 2015, published 2019)",
  "key": {"DIO mice": {"system": "DIO mice", "assay": "Mice with diet-induced obesity (DIO), 14 days oral treatment", "format": "in vivo, mouse", "protocol": "Data represent mean±SEM from 5-6 mice per group.*(P<0.05), indicate significant difference from […] diet control. ^# indicates significant treatment effect (P<0.05) relative to vehicle-treated HFD group.\nData represent mean±SEM from 5-6 mice per group. *(P<0.05), indicate significant difference from (STD) diet control. ^# indicates significant treatment effect (P<0.05) relative to vehicle-treated HFD group. […] Glucose tolerance and insulin sensitivity were determined on the last 2 days of treatment, using i.p. glucose tolerance and insulin sensitivity tests."}, "ZDF rats": {"system": "ZDF rats", "assay": "Zucker diabetic fatty (ZDF) rat model of type 2 diabetes", "format": "in vivo", "conditions": "10 mg/kg/day oral gavage, 7 days", "from_the_text": "The Zucker diabetic fatty (ZDF) rat is a commonly used animal model of type 2 diabetes with progressive β-cell loss resulting in extreme hyperglycemia. […] (Jourdan et al, Nature Med 2013, 19-(9):1132-1140)."}, "[1]": {"system": "CCl4-induced liver fibrosis", "assay": "CCl4-induced liver fibrosis model in mice", "format": "in vivo, mouse", "conditions": "for CCl4-induced increase in immunoreactive iNOS: liver", "protocol": "CCl4-induced liver fibrosis was generated by intraperitoneal injection of CCL4 (1 ml/kg, diluted 1:10 corn oil), twice weekly for 8 weeks. […] Data represent mean±SEM from 7-8 mice per group.*P<0.05 relative to control. ^#indicates significant treatment effect (P<0.05) relative to CCl4-treated vehicle group.\nFibrosis results from excessive extracellular matrix deposition by myofibroblasts accompanying chronic inflammation and wound healing, and is a key pathogenic process in many organs, including kidneys, lung, and liver."}, "[2]": {"assay": "In vivo metabolism in mouse, plasma LC-MS/MS", "conditions": "1 h after oral administration at 10 mg/kg in mice"}, "CB1 [3]": {"biological_target": "T1, CB1 (Mus musculus, UniProt P47746)", "T1 sequence (P47746 whole entry)": "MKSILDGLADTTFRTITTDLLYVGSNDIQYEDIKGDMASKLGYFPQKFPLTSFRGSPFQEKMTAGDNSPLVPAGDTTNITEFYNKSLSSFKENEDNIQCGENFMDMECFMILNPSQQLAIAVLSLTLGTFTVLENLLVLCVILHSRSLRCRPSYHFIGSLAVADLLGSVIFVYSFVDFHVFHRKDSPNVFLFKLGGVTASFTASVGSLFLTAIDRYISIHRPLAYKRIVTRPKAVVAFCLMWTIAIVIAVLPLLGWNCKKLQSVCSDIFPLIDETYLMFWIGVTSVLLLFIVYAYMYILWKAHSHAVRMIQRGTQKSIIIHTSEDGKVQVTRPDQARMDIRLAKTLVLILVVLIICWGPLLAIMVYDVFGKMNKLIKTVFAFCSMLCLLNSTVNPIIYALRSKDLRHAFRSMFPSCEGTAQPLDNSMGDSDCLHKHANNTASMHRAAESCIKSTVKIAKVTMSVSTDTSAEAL"}, "[4]": {"assay": "Tissue levels (brain and plasma) after administration to mice", "conditions": "1 hour after administration of 10 mg/kg to mice"}, "recombinant human AMPK": {"system": "recombinant human AMPK", "assay": "Recombinant AMPK activity assay (Cyclex kit)", "format": "biochemical", "from_the_text": "Guanides and biguanides, such as metformin, are effective as antidiabetic agents linked to their AMPK activating properties (Hardie et al., Chem Biol. 2012, […]; 1222-1236). Guanidine-containing analogs in certain embodiments were screened for activation of recombinant human AMPK, using an assay kit (Cyclex, Nagona, Japan), as illustrated in FIG. 8.\nActivators of AMP-activated protein kinase (AMPK), such as guanidines of biguanides such as metformin are useful for the treatment of diabetes owing to their AMPK activating property (Hardie, et al., Chem & Biol 2012, 19(10); 1222-1236). Guanidine analogues of certain embodiments were screened for AMPK activation by using a recombinant AMPK activity assay."}, "liver fibrosis": {"system": "liver fibrosis", "conditions": "Teixeira-Clerc, Nature Med 2006; cited from earlier work"}, "CB1 [5]": {"biological_target": "T1, CB1", "assay": "CB1 radioligand displacement assay in mouse brain membranes", "format": "binding", "parameters": "radioligand displacement assay in mouse brain membranes; from tissue; host or cells: mouse brain membranes"}, "[6]": {"conditions": "DIO mice, 10 mg/kg/day, 14 days"}, "[7]": {"conditions": "10 mg/kg/day orally for 4 weeks"}},
  "note": "Where two headings read alike, the source gives them in different places.",
  "data": [
    {"smiles": "C/C(N)=N\\C(=N/S(=O)(=O)c1ccc(Cl)cc1)N1CC(c2ccccc2)C(c2ccc(Cl)cc2)=N1", "note": "(racemic) [Compound 2, rac-N-(1-aminoethylidene)-3-(4-chlorophenyl)-N-((4-chlorophenyl)sulfonyl)-4-phenyl-4,5-dihydro-1H-pyrazole-1-carboximidamide]", "values": [
      {"measurement": "HFD-induced glucose intolerance", "setting": "DIO mice; [6]", "value": "abrogated"},
      {"measurement": "body weight", "setting": "DIO mice; [6]", "value": "reduced"},
      {"measurement": "food intake", "setting": "DIO mice; [6]", "value": "reduced"},
      {"measurement": "hepatic TG", "setting": "DIO mice; [6]", "value": "reduced"},
      {"measurement": "hyperinsulinemia", "setting": "DIO mice; [6]", "value": "abrogated"},
      {"measurement": "hyperleptinemia", "setting": "DIO mice; [6]", "value": "reduced"},
      {"measurement": "insulin resistance", "setting": "DIO mice; [6]", "value": "abrogated"},
      {"measurement": "insulin resistance (insulin sensitivity test)", "setting": "DIO mice; DIO mice, last 2 days of treatment", "value": "nearly completely normalized"},
      {"measurement": "glucose intolerance (i.p. glucose tolerance test)", "setting": "DIO mice; DIO mice, last 2 days of treatment, i.p. glucose load 1.5 g/kg", "value": "nearly completely normalized"},
      {"measurement": "In vivo Comments", "setting": "DIO mice; mouse, in vivo", "value": "-anti- diabetic -anti- obesity"},
      {"measurement": "plasma c-peptide", "setting": "ZDF rats", "value": "prevented"},
      {"measurement": "plasma insulin", "setting": "ZDF rats", "value": "prevented"},
      {"measurement": "blood glucose", "setting": "ZDF rats; 10 mg/kg/day", "value": "prevented the progressive increase"},
      {"measurement": "liver fibrosis / collagen deposition by Sirius Red and Masson's trichrome staining", "setting": "[1]; [7]", "value": "more effective than rimonabant"},
      {"measurement": "α-SMA, Procollagen-1 and Fibronectin-1 mRNA", "setting": "[1]; [7]", "value": "more effective than rimonabant"},
      {"measurement": "CCl4-induced increase in immunoreactive iNOS", "setting": "[1]; [7]", "value": "attenuated"},
      {"measurement": "in vivo metabolism, metabolite generation in plasma", "setting": "[2]", "value": "underwent in vivo metabolism to liberate the amidine moiety and a metabolite"},
      {"measurement": "Functional GTPγS binding CB1 Emax", "setting": "CB1 [3]", "value": -20, "unit": "% basal"}
    ]},
    {"smiles": "CC(=N)N/C(=N\\S(=O)(=O)c1ccc(Cl)cc1)N1C[C@H](c2ccccc2)C(c2ccc(Cl)cc2)=N1", "note": "[Compound 2E1]", "values": [
      {"measurement": "liver fibrosis / collagen deposition by Sirius Red and Masson's trichrome staining", "setting": "[1]; [7]", "value": "more effective than rimonabant"},
      {"measurement": "CCl4-induced increase in immunoreactive iNOS", "setting": "[1]; [7]", "value": "dramatically attenuated"},
      {"measurement": "anti-fibrotic efficacy in liver fibrosis (overall)", "setting": "[1]; versus rimonabant", "value": "higher anti-fibrotic efficacy than rimonabant"},
      {"measurement": "plasma levels, oral versus i.p. administration", "setting": "[4]", "value": "comparable after oral or i.p. administration"}
    ]},
    {"smiles": "Cc1c(C(=O)NN2CCCCC2)nn(-c2ccc(Cl)cc2Cl)c1-c1ccc(Cl)cc1", "note": "[rimonabant]", "values": [
      {"measurement": "effect on AMPK activity", "setting": "recombinant human AMPK", "value": "no effect"},
      {"measurement": "effect on AMPK activity", "setting": "recombinant human AMPK; 1 μM", "value": "no effect"},
      {"measurement": "anti-fibrotic effect", "setting": "liver fibrosis", "value": "anti-fibrotic effect"}
    ]},
    {"smiles": "NC(=NC(=NS(=O)(=O)c1ccc(I)cc1)N1CC(c2ccccc2)C(c2ccc(Cl)cc2)=N1)c1ccc(Cl)cc1", "note": "(stereo not shown) [Compound 86]", "values": [
      {"measurement": "Ki", "setting": "CB1 [5]; Table 2, read-out: Ki CB1", "value": 11, "unit": "nM"}
    ]},
    {"smiles": "CC(C)SC(N)=NC(=NS(=O)(=O)c1ccc(Cl)cc1)N1CC(c2ccccc2)C(c2ccc(Cl)cc2)=N1", "note": "(stereo not shown) [Compound 23]", "values": [
      {"measurement": "Ki", "setting": "CB1 [5]; Table 2, read-out: Ki CB1", "value": 166, "unit": "nM"}
    ]},
    {"smiles": "CC(C)(N/C(N)=N/C(=N/S(=O)(=O)c1ccc(Cl)cc1)N1CC(c2ccccc2)C(c2ccc(Cl)cc2)=N1)c1ccccc1", "note": "(stereo not shown) [Compound 66]", "values": [
      {"measurement": "Ki", "setting": "CB1 [5]; Table 2, read-out: Ki CB1", "value": 112, "unit": "nM"}
    ]},
    {"smiles": "CN(CC(C)(C)C)C(N)=NC(=NS(=O)(=O)c1ccc(Cl)cc1)N1CC(c2ccccc2)C(c2ccc(Cl)cc2)=N1", "note": "(stereo not shown) [Compound 67]", "values": [
      {"measurement": "Ki", "setting": "CB1 [5]; Table 2, read-out: Ki CB1", "value": 2390, "unit": "nM"}
    ]},
    {"smiles": "NC(=NC(=NS(=O)(=O)c1ccc(Cl)cc1)N1CC(c2ccccc2)C(c2ccc(Cl)cc2)=N1)c1cccs1", "note": "(stereo not shown) [Compound 16]", "values": [
      {"measurement": "Ki", "setting": "CB1 [5]; Table 2, read-out: Ki CB1", "value": 60, "unit": "nM"}
    ]},
    {"smiles": "CC(C)(C)C(N)=NC(=NS(=O)(=O)c1ccc(Cl)cc1)N1C[C@H](c2ccccc2)C(c2ccc(Cl)cc2)=N1", "note": "[Compound 3E1]", "values": [
      {"measurement": "Ki", "setting": "CB1 [5]; Table 2, read-out: Ki CB1", "value": 36, "unit": "nM"}
    ]},
    {"smiles": "CC(N)=NC(=NS(=O)(=O)c1ccc(OC(F)(F)F)cc1)N1CC(c2ccccc2)C(c2ccc(Cl)cc2)=N1", "note": "(stereo not shown) [Compound 97]", "values": [
      {"measurement": "Ki", "setting": "CB1 [5]; Table 2, read-out: Ki CB1", "value": 138, "unit": "nM"}
    ]},
    {"smiles": "CC(N)=NC(=NS(=O)(=O)c1ccccc1)N1CC(c2ccccc2)C(c2ccc(Cl)cc2)=N1", "note": "(stereo not shown) [Compound 30]", "values": [
      {"measurement": "Ki", "setting": "CB1 [5]; Table 2, read-out: Ki CB1", "value": 114, "unit": "nM"}
    ]},
    {"smiles": "N/C(=N\\C(=N\\S(=O)(=O)c1ccc(Cl)cc1)N1CC(c2ccccc2)C(c2ccc(Cl)cc2)=N1)NCc1ccccc1", "note": "(stereo not shown) [Compound 50]", "values": [
      {"measurement": "Ki", "setting": "CB1 [5]; Table 2, read-out: Ki CB1", "value": 505, "unit": "nM"}
    ]},
    {"smiles": "CC(C)(C)OC(=O)N1CCN(/C(N)=N/C(=N/S(=O)(=O)c2ccc(Cl)cc2)N2CC(c3ccccc3)C(c3ccc(Cl)cc3)=N2)CC1", "note": "(stereo not shown) [Compound 59]", "values": [
      {"measurement": "Ki", "setting": "CB1 [5]", "value": 387, "unit": "nM"}
    ]},
    {"smiles": "NC(COc1ccccc1)=NC(=NS(=O)(=O)c1ccc(Cl)cc1)N1CC(c2ccccc2)C(c2ccc(Cl)cc2)=N1", "note": "(stereo not shown) [Compound 13]", "values": [
      {"measurement": "Ki", "setting": "CB1 [5]; Table 2, read-out: Ki CB1", "value": 72, "unit": "nM"}
    ]},
    {"smiles": "CC(N)=NC(=NS(=O)(=O)c1ccc2ccccc2c1)N1CC(c2ccccc2)C(c2ccc(Cl)cc2)=N1", "note": "(stereo not shown) [Compound 33]", "values": [
      {"measurement": "Ki", "setting": "CB1 [5]; Table 2, read-out: Ki CB1", "value": 8, "unit": "nM"}
    ]},
    {"smiles": "CCN(CC)/C(N)=N/C(=N/S(=O)(=O)c1ccc(Cl)cc1)N1CC(c2ccccc2)C(c2ccc(Cl)cc2)=N1", "note": "(stereo not shown) [Compound 38]", "values": [
      {"measurement": "Ki", "setting": "CB1 [5]; Table 2, read-out: Ki CB1", "value": 49, "unit": "nM"}
    ]},
    {"smiles": "CC(=O)N/C(N)=N/C(=N/S(=O)(=O)c1ccc(Cl)cc1)N1CC(c2ccccc2)C(c2ccc(Cl)cc2)=N1", "note": "(stereo not shown) [Compound 65]", "values": [
      {"measurement": "Ki", "setting": "CB1 [5]; Table 2, read-out: Ki CB1", "value": 9, "unit": "nM"}
    ]},
    {"smiles": "CC(N)=NC(=NS(=O)(=O)c1ccc(C)cc1)N1CC(c2ccccc2)C(c2ccc(Cl)cc2)=N1", "note": "(stereo not shown) [Compound 31]", "values": [
      {"measurement": "Ki", "setting": "CB1 [5]; Table 2, read-out: Ki CB1", "value": 87, "unit": "nM"}
    ]}
  ]
}
